Laboratory results taken from patent publication US10093713B2, “GIP-GLP-1 dual agonist compounds and methods” (priority 2013, dated 2018).
Like-named read-outs stand apart in the source and are kept apart here. *1 amine or outer side, *2 acyl side, *3 side chain or, on linkers, in order; H or OH if unused. Where a SMILES comes first, the peptide text is derived from it. Side-chain parts run from the residue outwards. [ ]: non-standard residue; d: D form. The star is where a group is joined. C20 diacid = O=C(O)CCCCCCCCCCCCCCCCCCC(=O)*; γGlu = O=C(O)[C@H](CCC(=O)[*:2])N[*:1]; AEEA = NCCOCCOCC(=O)O; Aib = CC(C)(N)C(=O)O

How the values were obtained:
[1] = Pharmacokinetics of selected compounds in mice; assay type: in vivo, C57BL/6J mice; settings: male, C57BL/6J, mouse, plasma; for bioavailability: subcutaneous, AUCinf (s.c.)/AUCinf (i.v.)x100, values marked * capped to 100%
Method: Pharmacokinetics of Selected Compounds in Mice
C57BL/6J mice (males with a body weight of approximately 25 g) were given either a single subcutaneous (s.c.) bolus or a single intravenous (i.v.) bolus of each peptide to be tested.
Following s.c. administration of the selected compounds (50, 100 or 200 nmol/kg), blood samples were drawn at 8 (eight) timepoints up to 72 hours post-dose. Following i.v. administration of the selected compounds (50, 100 or 200 nmol/kg), blood samples were drawn at 8 (eight) timepoints up to 48 hours post-dose. Blood samples were drawn by sublingual bleeding. The dosing vehicle was a phosphate buffer containing mannitol (pH 7.5).
At each sampling time point, samples from two mice were drawn, i.e. 16 mice were included for each compound and each administration route. The mice were euthanized immediately after blood sampling by cervical dislocation. Plasma samples were analyzed after solid phase extraction (SPE) or protein precipitation followed by liquid chromatography mass spectrometry (LC-MS/MS). Mean plasma concentrations were used for calculation of the pharmacokinetic parameters using the non-compartmental approach in Phoenix WinNonlin 6.3. Plasma terminal elimination half-life (T½) was determined as […] where λz is the magnitude of the slope of the log linear regression of the log concentration versus time profile during the terminal phase. Bioavailability was determined as AUCinf (s.c.)/AUCinf (i.v.)×100, where AUCinf is the area under the plasma concentration−time curve extrapolated to infinity (AUCinf=AUClast+Clast/λz, where Clast is the last observed plasma concentration). Tmax is the post-dose time where the maximal plasma concentration was observed.

[2] = molecular target: T1, human GLP-1 R (Homo sapiens, UniProt P43220); assay: Human GLP-1 receptor (GLP-1 R) activity assay, cAMP induction (AlphaScreen) in HEK293 cells; assay type: cell-based
T1 construct: expressed in transfected cells
T1 sequence (P43220 24-463): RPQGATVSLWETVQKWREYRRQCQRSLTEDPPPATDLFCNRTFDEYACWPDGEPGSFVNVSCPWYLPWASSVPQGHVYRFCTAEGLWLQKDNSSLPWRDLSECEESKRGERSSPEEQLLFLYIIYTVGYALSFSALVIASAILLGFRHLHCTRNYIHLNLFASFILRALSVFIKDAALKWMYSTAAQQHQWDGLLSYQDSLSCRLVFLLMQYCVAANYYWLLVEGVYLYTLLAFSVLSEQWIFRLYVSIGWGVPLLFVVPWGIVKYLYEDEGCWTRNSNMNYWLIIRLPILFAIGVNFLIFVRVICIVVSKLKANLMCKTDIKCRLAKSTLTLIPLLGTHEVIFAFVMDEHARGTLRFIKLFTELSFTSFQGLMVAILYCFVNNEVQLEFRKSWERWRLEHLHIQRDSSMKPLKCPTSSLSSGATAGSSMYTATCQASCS
Procedure, shortened: (§1)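 Stable HEK293 clones expressing human GIP R or GLP-1 R, seeded 1 day before; cells washed in Tyrode's buffer (10 mM HEPES, pH 7.4), stimulated, then lysed. cAMP measured by AlphaScreen bead competition (1 h, room temperature, dark). EC50 = concentration giving half-maximal cAMP elevation, from curves of absolute cAMP (nM) vs log concentration.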

[3] = molecular target: T2, human GIP R (Homo sapiens, UniProt P48546); assay: Human GIP receptor (GIP R) activity assay, cAMP induction (AlphaScreen) in HEK293 cells; assay type: cell-based; settings: read-out: hGIP-R cAMP EC50 average value
T2 construct: expressed in transfected cells
T2 sequence (P48546 22-466): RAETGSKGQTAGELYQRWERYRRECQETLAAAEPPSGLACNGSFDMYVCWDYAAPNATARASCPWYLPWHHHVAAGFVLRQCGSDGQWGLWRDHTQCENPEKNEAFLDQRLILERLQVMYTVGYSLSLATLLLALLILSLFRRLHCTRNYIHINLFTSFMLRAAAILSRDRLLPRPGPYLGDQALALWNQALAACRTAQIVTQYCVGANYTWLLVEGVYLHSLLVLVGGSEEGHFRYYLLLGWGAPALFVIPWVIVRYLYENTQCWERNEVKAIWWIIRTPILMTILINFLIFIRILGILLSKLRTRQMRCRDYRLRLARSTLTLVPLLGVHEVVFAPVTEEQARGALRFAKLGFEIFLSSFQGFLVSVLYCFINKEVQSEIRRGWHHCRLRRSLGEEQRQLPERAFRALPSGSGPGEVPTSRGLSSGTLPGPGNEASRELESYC
Procedure, shortened: as §1

[4] = molecular target: T3, human GIP receptor (human) (UniProt P48546); assay: cell-based or functional assay
T3 sequence: T2 sequence (P48546 22-466)

[5] = iv, single i.v. bolus, read-out: T½ terminal elimination half-life, i.v. (converted)
[6] = sc, single s.c. bolus, read-out: T½ terminal elimination half-life, s.c. (converted)
[7] = Table 2, HEK293 cells expressing human GLP-1 R, read-out: hGLP1-R cAMP EC50 average value
[8] = Table 3, most comprehensive data, read-out: hGLP-1-R cAMP EC50 average value
[9] = Table 2, HEK293 cells expressing human GIP R
[10] = Table 3, most comprehensive data

Molecule | half-life [1, 5] [h] | bioavailability [1] [%] | Tmax ([1]; sc, single s.c. bolus) [h] | half-life [1, 6] [h] | EC50 [2, 7] [nM] | EC50 [2, 8] [nM] | EC50 [3, 9] [nM] | EC50 [3, 10] [nM] | EC50, hGIP-R cAMP [4] [nM]
CC[C@H](C)[C@H](NC(=O)[C@H](CO)NC(=O)[C@H](Cc1ccc(O)cc1)NC(=O)[C@H](CC(=O)O)NC(=O)[C@H](CO)NC(=O)[C@@H](NC(=O)[C@H](Cc1ccccc1)NC(=O)[C@@H](NC(=O)CNC(=O)[C@H](CCC(=O)O)NC(=O)C(C)(C)NC(=O)[C@@H](N)Cc1ccc(O)cc1)[C@@H](C)O)[C@@H](C)O)C(=O)N[C@@H](C)C(=O)N[C@@H](CC(C)C)C(=O)N[C@@H](CCC(=O)O)C(=O)N[C@@H](CCCCN)C(=O)N[C@@H](CCCCNC(=O)COCCOCCNC(=O)COCCOCCNC(=O)CC[C@H](NC(=O)CCCCCCCCCCCCCCCCCCC(=O)O)C(=O)O)C(=O)N[C@@H](C)C(=O)N[C@@H](CCC(N)=O)C(=O)N[C@@H](CCCNC(=N)N)C(=O)N[C@@H](C)C(=O)N[C@@H](Cc1ccccc1)C(=O)N[C@H](C(=O)N[C@@H](CCC(=O)O)C(=O)N[C@@H](Cc1c[nH]c2ccccc12)C(=O)N[C@@H](CC(C)C)C(=O)N[C@@H](CC(C)C)C(=O)N[C@@H](C)C(=O)N[C@@H](CCC(N)=O)C(=O)NCC(=O)N1CCC[C@H]1C(=O)N[C@@H](CO)C(=O)N[C@@H](CO)C(=O)NCC(=O)N[C@@H](C)C(=O)N1CCC[C@H]1C(=O)N1CCC[C@H]1C(=O)N1CCC[C@H]1C(=O)N[C@@H](CO)C(N)=O)C(C)C [Compound 31] (H-Y[Aib]EGTFTSDYSIALEKK([AEEA-AEEA-γGlu-C20 diacid])AQRAFVEWLLAQGPSSGAPPPS-NH2) | 11.7 | 88 | 8 | 15.1 | 0.016 | 0.017 | 0.007 | 0.008 | –
CC[C@H](C)[C@H](NC(=O)[C@H](CO)NC(=O)[C@H](Cc1ccc(O)cc1)NC(=O)[C@H](CC(=O)O)NC(=O)[C@H](CO)NC(=O)[C@@H](NC(=O)[C@H](Cc1ccccc1)NC(=O)[C@@H](NC(=O)CNC(=O)[C@H](CCC(=O)O)NC(=O)[C@@H](C)NC(=O)[C@@H](N)Cc1ccc(O)cc1)[C@@H](C)O)[C@@H](C)O)C(=O)N[C@@H](C)C(=O)N[C@@H](CC(C)C)C(=O)N[C@@H](CCC(=O)O)C(=O)N[C@@H](CCCCN)C(=O)N[C@@H](CCCCNC(=O)COCCOCCNC(=O)COCCOCCNC(=O)CC[C@H](NC(=O)CCCCCCCCCCCCCCCCCCC(=O)O)C(=O)O)C(=O)N[C@@H](C)C(=O)N[C@@H](CCC(N)=O)C(=O)N[C@@H](CCCNC(=N)N)C(=O)N[C@@H](C)C(=O)N[C@@H](Cc1ccccc1)C(=O)N[C@H](C(=O)N[C@@H](CCC(=O)O)C(=O)N[C@@H](Cc1c[nH]c2ccccc12)C(=O)N[C@@H](CC(C)C)C(=O)N[C@@H](CC(C)C)C(=O)N[C@@H](C)C(=O)N[C@@H](CCC(N)=O)C(=O)NCC(=O)N1CCC[C@H]1C(=O)N[C@@H](CO)C(=O)N[C@@H](CO)C(=O)NCC(=O)N[C@@H](C)C(=O)N1CCC[C@H]1C(=O)N1CCC[C@H]1C(=O)N1CCC[C@H]1C(=O)N[C@@H](CO)C(N)=O)C(C)C [Compound 32] (H-Y[dA]EGTFTSDYSIALEKK([AEEA-AEEA-γGlu-C20 diacid])AQRAFVEWLLAQGPSSGAPPPS-NH2) | 17.4 | 100 | 8 | 11.8 | 0.04 | 0.056 | 0.016 | 0.018 | –
CC[C@H](C)[C@H](NC(=O)[C@H](CO)NC(=O)[C@H](CC(C)C)NC(=O)[C@H](CC(=O)O)NC(=O)[C@H](CO)NC(=O)[C@@H](NC(=O)[C@H](Cc1ccccc1)NC(=O)[C@@H](NC(=O)CNC(=O)[C@H](CCC(=O)O)NC(=O)C(C)(C)NC(=O)[C@@H](N)Cc1ccc(O)cc1)[C@@H](C)O)[C@@H](C)O)C(=O)N[C@@H](C)C(=O)N[C@@H](CC(C)C)C(=O)N[C@@H](CCC(=O)O)C(=O)N[C@@H](CCCCN)C(=O)N[C@@H](CCCCNC(=O)COCCOCCNC(=O)COCCOCCNC(=O)CC[C@H](NC(=O)CCCCCCCCCCCCCCCCCCC(=O)O)C(=O)O)C(=O)N[C@@H](C)C(=O)N[C@@H](CCC(N)=O)C(=O)N[C@@H](CCCNC(=N)N)C(=O)N[C@@H](C)C(=O)N[C@@H](Cc1ccccc1)C(=O)N[C@H](C(=O)N[C@@H](CCC(=O)O)C(=O)N[C@@H](Cc1c[nH]c2ccccc12)C(=O)N[C@@H](CC(C)C)C(=O)N[C@@H](CC(C)C)C(=O)N[C@@H](C)C(=O)N[C@@H](CCC(N)=O)C(=O)N[C@@H](CCCCN)C(=O)N1CCC[C@H]1C(=O)N[C@@H](CO)C(=O)N[C@@H](CO)C(=O)NCC(=O)N[C@@H](C)C(=O)N1CCC[C@H]1C(=O)N1CCC[C@H]1C(=O)N1CCC[C@H]1C(=O)N[C@@H](CO)C(N)=O)C(C)C [Compound 34] (H-Y[Aib]EGTFTSDLSIALEKK([AEEA-AEEA-γGlu-C20 diacid])AQRAFVEWLLAQKPSSGAPPPS-NH2) | 14.9 | 79 | 8 | 17.1 | 0.015 | – | 0.012 | – | –
hGIP (from UniProt P09681 52-93) (ligand) | – | – | – | – | – | – | – | – | 0.003
hGLP-1 (from UniProt P01275 92-128) (ligand) | – | – | – | – | – | – | – | – | > 10
